Results as given in patent publication US4120955A, “Method for production of kanamycin C and its derivatives” (Zaidan Hojin Biseibutsu Kagaku Kenkyu Kai, priority 1976, dated 1978).
In brackets after ≈: the same amount, converted by molar mass.

Legend:
[1] = tested on: bacterial strains; test: Antibacterial activity in general (summary of Table 1); assay type: cell-based
Description: (§1) The minimum inhibitory concentrations (mcg/ml) of kanamycin C, 3'-deoxykanamycin C and 3',4'-dideoxykanamycin C against various microorganisms were determened according to serial dilution method using nutrient agar medium at 37° C., the estimation being effected after 18 hours incubation.

[2] = tested on: Pseudomonas aeruginosa TI-13; test: Minimum inhibitory concentration, serial dilution method; assay type: cell-based; conditions: TI13, nutrient agar, 37° C., 18 hours, P. aeruginosa TI-13, read-out: Minimum Inhibitory Concentration
Description: as §1

[3] = tested on: Escherichia coli K-12 ML 1630; test: as above; assay type: cell-based; conditions: K12ML1630, nutrient agar, 37° C., 18 hours, E. coli K-12 ML 1630
Description: as §1

[4] = tested on: Klebsiella pneumoniae PCI 602; test: as above; assay type: cell-based; conditions: PCI602, 18 h, read-out: Minimum Inhibitory Concentration
Description: as §1

[5] = tested on: Escherichia coli LA 290 R56; test: as above; assay type: cell-based; conditions: LA290R56, 18 h, read-out: Minimum Inhibitory Concentration
Description: as §1

[6] = tested on: Mycobacterium smegmatis ATCC 607; test: as above; assay type: cell-based; conditions: Mycolicibacterium smegmatis, ATCC607, 18 h, read-out: Minimum Inhibitory Concentration
Description: as §1

[7] = tested on: Staphylococcus aureus FDA 209P; test: as above; assay type: cell-based; conditions: FDA209P, 18 h, read-out: Minimum Inhibitory Concentration
Description: as §1

[8] = tested on: Pseudomonas aeruginosa A3; test: as above; assay type: cell-based; conditions: nutrient agar, 37° C., 18 hours, P. aeruginosa A3
Description: as §1

[9] = tested on: Pseudomonas aeruginosa H 11; test: as above; assay type: cell-based; conditions: H11, nutrient agar, 37° C., 18 hours, P. aeruginosa H 11, read-out: Minimum Inhibitory Concentration
Description: as §1

[10] = tested on: Escherichia coli W 677; test: as above; assay type: cell-based; conditions: W677, 18 h, read-out: Minimum Inhibitory Concentration
Description: as §1

[11] = tested on: Escherichia coli K-12 ML 1410 R81; test: as above; assay type: cell-based; conditions: 18 h, read-out: Minimum Inhibitory Concentration
Description: as §1

[12] = tested on: Klebsiella pneumoniae 22 No. 3038; test: as above; assay type: cell-based; conditions: 22NO.3038, 18 h, read-out: Minimum Inhibitory Concentration
Description: as §1

[13] = tested on: 99; test: as above; assay type: cell-based; conditions: 18 h, read-out: Minimum Inhibitory Concentration
Description: as §1

[14] = tested on: Escherichia coli LA 290 R55; test: as above; assay type: cell-based; conditions: LA290R55, 18 h, read-out: Minimum Inhibitory Concentration
Description: as §1

[15] = tested on: Pseudomonas aeruginosa GN 315; test: as above; assay type: cell-based; conditions: GN315, nutrient agar, 37° C., 18 hours, P. aeruginosa GN 315, read-out: Minimum Inhibitory Concentration
Description: as §1

[16] = tested on: Escherichia coli NIHJ; test: as above; assay type: cell-based; conditions: 18 h, read-out: Minimum Inhibitory Concentration
Description: as §1

[17] = tested on: Pseudomonas aeruginosa No. 12; test: as above; assay type: cell-based; conditions: NO.12, 18 h, read-out: Minimum Inhibitory Concentration
Description: as §1

[18] = tested on: Escherichia coli K-12; test: as above; assay type: cell-based; conditions: K12, 18 h, read-out: Minimum Inhibitory Concentration
Description: as §1

[19] = tested on: Escherichia coli JR 66/W677; test: as above; assay type: cell-based; conditions: JR66/W677, 18 h, read-out: Minimum Inhibitory Concentration
Description: as §1

[20] = tested on: Escherichia coli K-12 R5; test: as above; assay type: cell-based; conditions: K12R5, 18 h, read-out: Minimum Inhibitory Concentration
Description: as §1

[21] = tested on: Escherichia coli K-12 ML 1410; test: as above; assay type: cell-based; conditions: K12ML1410, nutrient agar, 37° C., 18 hours, E. coli K-12 ML 1410
Description: as §1

[22] = tested on: Escherichia coli LA 290 R64; test: as above; assay type: cell-based; conditions: LA290R64, 18 h, read-out: Minimum Inhibitory Concentration
Description: as §1

[23] = tested on: Escherichia coli K-12 ML 1629; test: as above; assay type: cell-based; conditions: K12ML1629, 18 h, read-out: Minimum Inhibitory Concentration
Description: as §1

[24] = tested on: aminoglycoside 3'-phosphotransferases; test: Inactivation by aminoglycoside 3'-phosphotransferases; assay type: biochemical
[25] = in vivo; conditions: mouse, iv
[26] = tested on: aminoglycoside 6'-acetyltransferases; test: Inactivation by aminoglycoside 6'-acetyltransferases; assay type: biochemical
[27] = tested on: resistant strains which produce 6'-acetyltransferases, for example Pseudomonas aeruginosa GN315; test: Activity against resistant strains producing 6'-acetyltransferases; assay type: cell-based; conditions: compared with kanamycin B derivatives
[28] = mouse, in vivo

## NC1CC(O)C(CO)OC1OC1C(N)CC(N)C(OC2OC(CO)C(O)C(N)C2O)C1O (centres unmarked) [3'-Deoxykanamycin C, 3'-deoxykanamycin C]
[1]
  growth inhibition of bacterial strains: inhibits the growth of many kinds of bacterial strains
[1]; against some bacteria strains
  antibacterial activity compared with 3'-deoxykanamycin B and 3',4'-dideoxykanamycin B: inferior
[2]
  MIC: 50 µg/mL (≈ 107 µM)
[3]
  MIC: 12.5 µg/mL (≈ 26.7 µM)
[4]
  MIC: 6.25 µg/mL (≈ 13.3 µM)
[5]
  MIC: 100 µg/mL (≈ 213 µM)
[6]
  MIC: 25 µg/mL (≈ 53.4 µM)
[7]
  MIC: 3.13 µg/mL (≈ 6.68 µM)
[8]
  MIC: 12.5 µg/mL (≈ 26.7 µM)
[9]
  MIC: 50 µg/mL (≈ 107 µM)
[10]
  MIC: 6.25 µg/mL (≈ 13.3 µM)
[11]
  MIC: 50 µg/mL (≈ 107 µM)
[12]
  MIC: > 100 µg/mL
[13]
  MIC: 100 µg/mL (≈ 213 µM)
[14]
  MIC: > 100 µg/mL
[15]
  MIC: 50 µg/mL (≈ 107 µM)
[16]
  MIC: 12.5 µg/mL (≈ 26.7 µM)
[17]
  MIC: 100 µg/mL (≈ 213 µM)
[18]
  MIC: 12.5 µg/mL (≈ 26.7 µM)
[19]
  MIC: > 100 µg/mL
[20]
  MIC: 12.5 µg/mL (≈ 26.7 µM)
[21]
  MIC: 12.5 µg/mL (≈ 26.7 µM)
[22]
  MIC: 50 µg/mL (≈ 107 µM)
[23]
  MIC: 12.5 µg/mL (≈ 26.7 µM)
[24]
  inactivation by 3'-phosphotransferases: not inactivated
[25]
  LD50: > 300 mg/kg
[26]
  inactivation by 6'-acetyltransferases: not inactivated
[27]
  activity against resistant strains which produce 6'-acetyltransferases: more active than kanamycin B derivatives
[28]
  acute toxicity compared with deoxy derivatives of kanamycin B: remarkably lower toxicity
